Tests used:
[1] = target: T1, prostacyclin synthetase (Sus scrofa, UniProt A0A5G2QT35); conditions: pre-incubation of the enzyme with the selective PGI2 synthetase inhibitor; cited from earlier work
T1 construct: Pig aorta microsomes; from tissue; host or cells: pig aorta microsomes
T1 sequence (A0A5G2QT35 1-497): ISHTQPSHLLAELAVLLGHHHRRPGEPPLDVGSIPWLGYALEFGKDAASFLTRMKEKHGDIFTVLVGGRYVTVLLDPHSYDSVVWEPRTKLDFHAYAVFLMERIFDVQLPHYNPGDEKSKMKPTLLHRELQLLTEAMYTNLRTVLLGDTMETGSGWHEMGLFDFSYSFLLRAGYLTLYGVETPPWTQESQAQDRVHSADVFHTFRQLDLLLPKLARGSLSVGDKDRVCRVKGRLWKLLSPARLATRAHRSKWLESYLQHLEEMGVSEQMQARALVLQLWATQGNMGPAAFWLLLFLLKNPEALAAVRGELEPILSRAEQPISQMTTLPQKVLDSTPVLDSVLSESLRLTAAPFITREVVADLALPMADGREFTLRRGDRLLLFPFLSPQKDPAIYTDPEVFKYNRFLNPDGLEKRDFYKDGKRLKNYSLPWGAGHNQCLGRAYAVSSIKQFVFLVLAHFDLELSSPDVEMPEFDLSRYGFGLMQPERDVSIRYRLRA

[2] = target: T1, prostacyclin synthetase; assay: Prostacyclin (PGI2) synthetase in vitro enzyme assay; assay type: biochemical; conditions: pig aorta microsomes, PGH2, 22° C., 30 seconds; 5 min pre-incubation; read-out: Concentration causing 50% inhibition of (3) prostacyclin synthetase
[3] = target: T2, thromboxane synthetase (Homo sapiens, UniProt P24557); assay: Thromboxane A2 (TxA2) synthetase in vitro enzyme assay; assay type: biochemical; conditions: for IC50: indomethacin-pretreated human platelet microsomes, PGH2, 0° C., 2 min, 5 min pre-incubation, read-out: Concentration causing 50% inhibition of (1) thromboxane synthetase; for Ratio of (3) to (1): prostacyclin synthetase / thromboxane synthetase 50% inhibition concentrations
T2 construct: Indomethacin-pretreated human platelet microsomes; from tissue; host or cells: human platelet microsomes
T2 sequence (P24557 1-533): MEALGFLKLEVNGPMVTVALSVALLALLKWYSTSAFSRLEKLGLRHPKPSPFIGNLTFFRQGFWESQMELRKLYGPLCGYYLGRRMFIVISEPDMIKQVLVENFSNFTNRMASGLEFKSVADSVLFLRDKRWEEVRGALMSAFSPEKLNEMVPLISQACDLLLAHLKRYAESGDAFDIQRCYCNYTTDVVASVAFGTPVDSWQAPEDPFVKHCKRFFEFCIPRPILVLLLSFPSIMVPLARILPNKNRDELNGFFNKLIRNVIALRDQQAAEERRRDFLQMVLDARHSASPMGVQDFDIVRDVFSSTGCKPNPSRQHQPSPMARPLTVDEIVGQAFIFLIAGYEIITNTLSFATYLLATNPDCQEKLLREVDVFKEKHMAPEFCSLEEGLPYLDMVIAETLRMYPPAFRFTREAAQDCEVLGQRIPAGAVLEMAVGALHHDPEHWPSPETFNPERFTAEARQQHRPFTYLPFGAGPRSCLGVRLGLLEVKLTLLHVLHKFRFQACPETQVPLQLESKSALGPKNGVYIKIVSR
Method: Indomethacin-pretreated human platelet microsomes (Science, 1976, 193, 163) are incubated with PGH2 (produced as described in test No. 1) at 0° C. for a period of two minutes, and aliquots of the reaction mixture are then superfused over two rabbit aorta spirals which are separated by a delay coil (2 min.). The latter is required in order to allow for the selective decay of the more unstable thromboxane A2 (Proc. Nat. Acad. Sci., 1975, 72, 2994), thereby enabling separate measurement of the increased isometric tension due to the TxA2 formed and the PGH2 remaining to take place. The test compound is then pre-incubated with the enzyme for a period of five minutes, and its ability to inhibit the thromboxane synthetase enzyme is measured as its reduction of the TxA2 component of the isometric tension.

[4] = target: T3, cyclo-oxygenase (Ovis aries, UniProt P05979); assay: Cyclo-oxygenase in vitro enzyme assay; assay type: biochemical; conditions: ram seminal vesicle microsomes, arachidonic acid 100 μM, 22° C., 1 min; 5 min pre-incubation; read-out: Concentration causing 50% inhibition of (2) cyclo-oxygenase
T3 construct: Ram seminal vesicle microsomes; from tissue; host or cells: ram seminal vesicle microsomes
T3 sequence (P05979 25-600): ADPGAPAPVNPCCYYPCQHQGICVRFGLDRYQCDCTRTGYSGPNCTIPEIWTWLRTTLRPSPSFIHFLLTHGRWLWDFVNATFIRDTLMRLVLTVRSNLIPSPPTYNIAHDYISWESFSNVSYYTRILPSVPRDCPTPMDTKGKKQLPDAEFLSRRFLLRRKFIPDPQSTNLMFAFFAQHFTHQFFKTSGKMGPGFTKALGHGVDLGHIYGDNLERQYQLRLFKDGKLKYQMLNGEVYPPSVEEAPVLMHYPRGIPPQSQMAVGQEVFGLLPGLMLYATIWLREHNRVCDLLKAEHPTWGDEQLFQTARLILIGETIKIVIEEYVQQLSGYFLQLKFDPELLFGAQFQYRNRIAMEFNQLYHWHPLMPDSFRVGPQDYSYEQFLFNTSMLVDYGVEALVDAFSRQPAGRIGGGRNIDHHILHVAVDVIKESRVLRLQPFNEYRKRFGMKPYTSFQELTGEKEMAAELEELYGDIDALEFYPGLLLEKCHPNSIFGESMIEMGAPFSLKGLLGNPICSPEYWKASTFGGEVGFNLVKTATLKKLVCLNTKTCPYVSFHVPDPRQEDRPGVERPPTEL
Method: The effect of the compounds of the formula (I) on the thromboxane synthetase enzyme, and the prostacyclin synthetase and cyclo-oxygenase enzymes has been measured by the following in vitro enzyme assay tests:
Ram seminal vesicle microsomes (Biochemistry, 1971, 10, 2372) are incubated with arachidonic acid (100 μM) at 22° C. for a period of one minute so as to produce PGH2, and aliquots of this reaction mixture are then injected into a stream of Krebs-bicarbonate at 37° C. [containing a mixture of antagonists (Nature, […], 218, 1135) and indomethacin (Brit. J. Pharmacol., 1972, 45, 451)] which is superfusing a spirally-cut rabbit aorta strip (Nature, 1969, 223, 29). The ability of a compound to inhibit the enzyme is measured by comparing the increases in isometric tension produced by PGH2 in the absence of the test compound and again, following pre-incubation of the enzyme with the test compound for a period of five minutes.

[5] = test system: human blood platelet aggregation; conditions: variety of aggregating agents; cited from earlier work
[6] = test system: cyclo-oxygenase enzyme; conditions: in words; cited from earlier work
[7] = test system: rabbit; conditions: intravenous arachidonic acid, rabbits; cited from earlier work
[8] = test system: stroke and heart attack; conditions: clinical evaluation; cited from earlier work
[9] = test system: aggregation of platelets; conditions: abdominal aorta of rats in vivo; cited from earlier work

In the case of `CCCCCC(/C=C/C=C\C/C=C\C/C=C\CCCC(=O)O)OO` (centres unmarked) [15-hydroperoxy-arachidonic acid], the “prevention of the decrease in PGH2-induced tension” value [1] is given as “prevented completely”.

In the case of `COc1ccc2[nH]c(C)c(Cn3ccnc3)c2c1` [Example V, 3-(imidazol-1-ylmethyl)-5-methoxy-2-methylindole], the IC50 [2] is reported as 4 µM, the IC50 [3] is reported as 0.062 µM and the “Ratio of (3) to (1)” value [3] is reported as 65. The IC50 [4] was over 100 µM.

In the case of `Cc1cccc2c(Cn3ccnc3)c[nH]c12` [Example X, 3-(imidazol-1-ylmethyl)-7-methylindole], the IC50 [2] is reported as over 100 µM, the IC50 [3] is reported as 0.0084 µM and the “Ratio of (3) to (1)” value [3] is reported as > 12,000. For the same compound, the IC50 [4] was over 100 µM.

With `O=C(c1ccccc1)n1cc(Cn2ccnc2)c2ccccc21` [Example XL, 1-benzoyl-3-(imidazol-1-ylmethyl)indole] the IC50 [2] was 1.7 µM, the IC50 [3] was 0.002 µM and the “Ratio of (3) to (1)” value [3] was 850. For the same compound, the IC50 [4] was over 100 µM.

With `Clc1ccccc1-c1[nH]c2ccccc2c1Cn1ccnc1` [Example XX, 2-(o-chlorophenyl)-3-(imidazol-1-ylmethyl)indole] the IC50 [2] was 40 µM, the IC50 [3] was 0.003 µM and the “Ratio of (3) to (1)” value [3] was 13,000. The IC50 [4] was over 100 µM.

For `Cl.c1ccc(Cn2cc(Cn3ccnc3)c3ccccc32)cc1` [Example XXVI, 1-benzyl-3-(imidazol-1-ylmethyl)indole hydrochloride], the IC50 [2] was 1 µM, the IC50 [3] was 0.065 µM and the “Ratio of (3) to (1)” value [3] was 15. It also gave an IC50 [4] of over 100 µM.

In the case of `Cc1[nH]c2ccccc2c1Cn1ccnc1` [II, 3-(imidazol-1-ylmethyl)-2-methylindole], the IC50 [2] is reported as 30 µM, the IC50 [3] is reported as 0.012 µM and the “Ratio of (3) to (1)” value [3] is reported as 2,500. It also gave an IC50 [4] of over 100 µM.

With `c1ccc(-c2[nH]c3ccccc3c2Cn2ccnc2)cc1` [III, 3-(imidazol-1-ylmethyl)-2-phenylindole] the IC50 [2] was 12 µM, the IC50 [3] was 0.01 µM and the “Ratio of (3) to (1)” value [3] was 1,200. For the same compound, the IC50 [4] was over 100 µM.

With `COc1ccc2[nH]cc(Cn3ccnc3)c2c1` [IV, 3-(imidazol-1-ylmethyl)-5-methoxyindole] the IC50 [2] was 100 µM, the IC50 [3] was 0.2 µM and the “Ratio of (3) to (1)” value [3] was 500. It also gave an IC50 [4] of over 100 µM.

In the case of `Brc1ccc2[nH]cc(Cn3ccnc3)c2c1` [IX, 5-bromo-3-(imidazol-1-ylmethyl)indole], the IC50 [2] is reported as 17 µM, the IC50 [3] is reported as 0.1 µM and the “Ratio of (3) to (1)” value [3] is reported as 170. It also gave an IC50 [4] of over 100 µM.

In the case of `Oc1ccc(-c2[nH]c3ccccc3c2Cn2ccnc2)cc1` [L, 2-(p-hydroxyphenyl)-3-(imidazol-1-ylmethyl)indole], the IC50 [2] is reported as 3 µM, the IC50 [3] is reported as 0.0066 µM and the “Ratio of (3) to (1)” value [3] is reported as 450. The IC50 [4] was over 100 µM.

For `c1ccc2c(Cn3ccnc3)c(C3CCCCC3)[nH]c2c1` [XII, 2-cyclohexyl-3-(imidazol-1-ylmethyl)indole], the IC50 [2] was 21 µM, the IC50 [3] was 0.0003 µM and the “Ratio of (3) to (1)” value [3] was 70,000. The IC50 [4] was over 100 µM.

In the case of `c1ccc2c(Cn3ccnc3)c(C3CC3)[nH]c2c1` [XIII, 2-cyclopropyl-3-(imidazol-1-ylmethyl)indole], the IC50 [2] is reported as 0.84 µM, the IC50 [3] is reported as 0.0001 µM and the “Ratio of (3) to (1)” value [3] is reported as 8,400. It also gave an IC50 [4] of over 100 µM.

In the case of `Cc1ccc(-c2[nH]c3ccccc3c2Cn2ccnc2)cc1` [XVII, 3-(imidazol-1-ylmethyl)-2-(p-tolyl)indole], the IC50 [2] is reported as 2 µM, the IC50 [3] is reported as 0.00025 µM and the “Ratio of (3) to (1)” value [3] is reported as 8,000. For the same compound, the IC50 [4] was over 100 µM.

For `Cn1cc(Cn2ccnc2)c2ccccc21` [XXVII, 3-(imidazol-1-ylmethyl)-1-methylindole], the IC50 [2] was over 100 µM, the IC50 [3] was 0.002 µM and the “Ratio of (3) to (1)” value [3] was > 50,000. The IC50 [4] was over 100 µM.

For `CC(=O)Oc1ccccc1C(=O)O` [aspirin], the “inhibitory activity in vitro against aggregating agents” value [5] is listed as “show inhibitory activity in vitro”, the “effect on prostacyclin and thromboxane A2 levels” value [6] is listed as “reduce both the prostacyclin and thromboxane A2 levels” and the “inhibition of the cyclo-oxygenase enzyme” value [6] is listed as “inhibit the cyclo-oxygenase enzyme”. The “protection from the lethal effect of arachidonic acid injection” value [7] was “protect the rabbit from the lethal effect of the injection” and the “clinical results in prevention of stroke and heart attack” value [8] was “some encouraging results”.

In the case of `O=C1C(CC[S+]([O-])c2ccccc2)C(=O)N(c2ccccc2)N1c1ccccc1` (centres unmarked) [sulphinpyrazone], the “inhibitory activity in vitro against aggregating agents” value [5] is given as “show inhibitory activity in vitro”, the “prevention of aggregation of platelets in extra corporeal loop” value [9] is given as “prevent the aggregation of platelets” and the “protection from the lethal effect of arachidonic acid injection” value [7] is given as “protect the rabbit from the lethal effect of the injection”.

From US4217357A, “Inhibition of thromboxane synthetase with 3-(imidazol-1-ylalkyl)indoles” (Pfizer Inc., priority 1978, dated 1980)
